Among the data in BindingDB's records for doi:10.1038/46290 (University of Bristol, 1999) are Ki values, retold here.

One may read the Ki as a measure of affinity in units of concentration, obtained from inhibition or displacement.

This test has as its target Glutamate receptor ionotropic, kainate 2 (Homo sapiens, UniProt Q13002).

Sequence of Glutamate receptor ionotropic, kainate 2 (Q13002 whole entry): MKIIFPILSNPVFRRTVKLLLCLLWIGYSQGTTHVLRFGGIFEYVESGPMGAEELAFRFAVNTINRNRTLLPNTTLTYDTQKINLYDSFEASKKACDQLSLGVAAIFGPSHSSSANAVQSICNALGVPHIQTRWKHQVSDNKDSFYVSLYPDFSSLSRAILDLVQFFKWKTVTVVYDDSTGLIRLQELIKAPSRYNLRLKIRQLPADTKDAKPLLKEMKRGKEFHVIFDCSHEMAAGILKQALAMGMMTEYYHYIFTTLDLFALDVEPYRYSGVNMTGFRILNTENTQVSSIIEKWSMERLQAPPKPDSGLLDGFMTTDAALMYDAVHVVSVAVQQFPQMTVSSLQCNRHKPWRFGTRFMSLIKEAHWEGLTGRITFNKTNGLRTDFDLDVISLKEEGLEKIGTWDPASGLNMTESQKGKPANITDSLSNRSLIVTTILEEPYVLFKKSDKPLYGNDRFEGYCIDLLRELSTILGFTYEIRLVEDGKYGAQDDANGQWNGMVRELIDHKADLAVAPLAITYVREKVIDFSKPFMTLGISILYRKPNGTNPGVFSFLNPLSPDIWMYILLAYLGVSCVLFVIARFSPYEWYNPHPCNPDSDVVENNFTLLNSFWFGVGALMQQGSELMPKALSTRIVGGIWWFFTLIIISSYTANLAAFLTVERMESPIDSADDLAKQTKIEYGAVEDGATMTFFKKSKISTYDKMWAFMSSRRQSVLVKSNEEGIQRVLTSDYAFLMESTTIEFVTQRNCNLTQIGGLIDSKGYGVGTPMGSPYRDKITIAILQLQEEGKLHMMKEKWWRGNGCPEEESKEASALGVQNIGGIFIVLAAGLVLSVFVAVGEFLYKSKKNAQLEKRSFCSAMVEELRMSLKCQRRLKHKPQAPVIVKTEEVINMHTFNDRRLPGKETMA

`O=C(O)c1ccc(C[C@H]2CC[C@H]3CN[C@H](C(=O)O)C[C@H]3C2)cc1` [LY 382884] had a Ki greater than 10 µM.
